Measured values reported in article PMC5556019, “Targeting Apolipoprotein E/Amyloid β Binding by Peptoid CPO_Aβ17-21 P Ameliorates Alzheimer’s Disease Related Pathology and Cognitive Decline” (Scientific Reports, 2017).
Numbered stars: 1 amine (or outer) side, 2 acyl side, 3 side chain; on linkers, the order of the positions; unused ones are H or OH. Bridge positions count the residues as written; N and C are the ends. Square brackets hold non-standard residues; d marks the D form. Peptide text beside a SMILES is read from it. ξ: configuration not given here. N(CH2CH2CO)Gly = O=C(CN(CCC(=O)[*:3])[*:1])[*:2]; Nphe = O=C(O)CNCc1ccccc1; Nleu = CC(C)CNCC(=O)O; ξP = O=C(O)C1CCCN1; Sar = CNCC(=O)O

Legend:
apoE4/Aβ42 binding = molecular target: T1, apoE4/Aβ42 binding (Homo sapiens, UniProt P02649, C130R); assay: Surface plasmon resonance assay of apoE4/Aβ42 binding inhibition
T1 construct: purchased BioVision (Milpitas, CA)
T1 sequence (P02649 19-317 C130R): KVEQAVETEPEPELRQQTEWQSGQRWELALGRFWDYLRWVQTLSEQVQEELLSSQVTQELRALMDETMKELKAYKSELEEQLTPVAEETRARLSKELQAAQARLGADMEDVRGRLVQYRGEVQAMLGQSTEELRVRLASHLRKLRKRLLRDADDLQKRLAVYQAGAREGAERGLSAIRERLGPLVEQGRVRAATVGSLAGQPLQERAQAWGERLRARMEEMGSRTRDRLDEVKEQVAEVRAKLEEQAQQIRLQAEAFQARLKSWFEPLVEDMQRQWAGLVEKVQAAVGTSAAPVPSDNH
Experimental: Experiments were performed using a Reichert SR7000DC refractometer system (Reichert, New York) equipped with a CM5 sensor chip. Acetate buffer was used for immobilization of the peptide Aβ42 (ligand). […] Importantly, Aβ42 species are considered critical for seeding of amyloid deposits, [32]. CM-dextran on a CM5 gold sensor chip was activated by injecting a solution of 10 mg/mL N-Hydroxysuccinimide (NHS) and 40 mg/mL 1-Ethyl-3-(3-dimethylaminopropyl) carbodiimide (EDC) over the sensor chip surface for 7 min at a flow rate of 20 µL/min. Then the ligand, 50 µg/mL HFIP treated synthetic peptide Aβ42 in 10 mM sodium acetate, pH 4.5, was immobilized by injection over the surface for 20 min. The unreacted sites on the sensor chip surface were blocked by injection of 1 M ethanolamine, pH 8.5 for 10 min. […] After each binding cycle the surface was regenerated by a short, fast injection of 10 mM hydrochloric acid. To verify results analytes containing lipidated human apoE4 molecules or lipidated human apoE3 molecules incubated with peptoid inhibitors in phosphate buffered saline with 0.05% TWEEN 20, pH 7.4 (PBST) were tested and the association and dissociation reactions were monitored.

[1] = Thioflavin T aggregation assay, peptoid incubated alone; format: physicochemical; settings: up to 100 µM, 37 °C, 10 days, 100 mM Tris buffer pH 7.4
Experimental: Peptide Aβ42 or peptoid CPO_Aβ17-21 P were incubated alone at a concentration of 100 µM over a period of 7–10 days at 37 °C in 100 mM Tris buffer (pH 7.4). […] In aggregation inhibition experiments, apoE4 was pre-incubated with CPO_Aβ17-21 P in a molar ratio of 1:2 for 6 hrs at 37 °C followed by addition to freshly reconstituted Aβ42 on ice (molar ratio 100:1:2, Aβ42:apoE4:peptoid). As a control, Aβ42 was also incubated with CPO_Aβ17-21 P at a molar ratio of 100:2. For peptide Aβ40 all the experiments were conducted under the same conditions as Aβ42 except the peptide concentration was 400 µM. The molar ratio of Aβ40:apoE4:CPO_Aβ17-21 P was 100:1:2. (400 µM Aβ40:4 µM apoE4:8 µM CPO_Aβ17-21 P). Fibril formation by the different peptides at various time points was evaluated by a standard Thioflavin-T assay according to previously published protocols, [33].The samples were diluted in buffer containing 50 mM glycine, 2 µM Thioflavin T pH 9.2, and read on a Molecular Devices SpectraMax M2 spectrophotometer (Sunnyvale, CA) at excitation and emission wavelengths 440 and 482 nm.

APP/PS1 Tg mice = assay: Cognitive tests (radial arm maze, object recognition); format: in vivo; settings: 0.2 mg per mouse i.p. twice weekly for 4 months
Experimental: The effect of CPO_Aβ17-21 P on Aβ deposition was tested in APP/PS1 Tg mice with plaque pathology. This AD mouse model develops plaque pathology from the age of 3 months. Animals were divided into two groups and received intraperitoneally (i.p.) injections of 0.2 mg of CPO_ Aβ17–21 P per mouse in sterile saline (n = 11, 5 male, 6 female) or saline alone (n = 10, 5 male, 5 female) as a control twice weekly for 4 months, beginning at age 3 months. During the treatment, veterinary staff monitored animals for any signs of toxicity, such as changes in body weight, physical appearance, and altered behavior. Animals were sacrificed a week after administration of the last treatment dose and behavioral testing. All mouse care and experimental procedures were compliant with guidelines of animal experimentation and were approved by the Institutional Animal Care and Use Committee at the New York University School of Medicine. […]
Spatial learning (working memory) was tested using a radial arm maze with eight radial 30-cm-long arms originating from the central space. […] The number of errors (entry into previously visited arms) was recorded during each session.
The spontaneous object recognition test measures short-term memory. […] The amount of time spent exploring each object within a defined zone of the area was automatically recorded by a tracking system (San Diego Instruments, San Diego, CA).

CC(C)CN1CC(=O)N2CCCC2C(=O)N(Cc2ccccc2)CC(=O)N(Cc2ccccc2)CC(=O)N(C)CC(=O)N(CC(N)=O)CCC1=O (stereo not shown) [CPO_Aβ17-21 P] ([Nleu][ξP][Nphe][Nphe][Sar][N(CH2CH2CO)Gly]-NH2; lactam N-6)
inhibition of apoE4/Aβ42 binding (apoE4/Aβ42 binding; SPR, 2:1 molar ratio (peptoid:apoE4)): 50% | inhibition of apoE4/Aβ42 binding (apoE4/Aβ42 binding; SPR, 8:1 molar ratio (peptoid:apoE4)): near complete inhibition | inhibition of apoE4/Aβ42 binding (library screen) (apoE4/Aβ42 binding; SPR, immobilised Aβ42, recombinant human apoE4 pre-incubated with peptoid, PBST pH 7.4): inhibited apoE4/Aβ42 binding | IC50 (apoE4/Aβ42 binding; one-site competition nonlinear regression, Fig. 1d legend: lipidated apoE/Aβ binding, read-out: half-maximal inhibition (IC50) of apoE/Aβ binding): 1.02 nM | formation of aggregates or fibrils by the peptoid alone [1]: did not produce aggregates or fibrils | radial arm maze, number of errors (APP/PS1 Tg mice; p < 0.01 two-way ANOVA treatment effect): significant cognitive improvement | novel object recognition (APP/PS1 Tg mice; p = 0.016): significant cognitive improvement
